# Literature values, collected in patent US7662571B2, “Mitochondrial markers of ischemia” (Nourheart Inc., priority 2005, dated 2010).
# No end group written: not given here.
# Experiments:
# [1] = target: T1, FMLP receptor (68-kDa protein) (Homo sapiens, UniProt P21462)
# T1 sequence (P21462 1-350): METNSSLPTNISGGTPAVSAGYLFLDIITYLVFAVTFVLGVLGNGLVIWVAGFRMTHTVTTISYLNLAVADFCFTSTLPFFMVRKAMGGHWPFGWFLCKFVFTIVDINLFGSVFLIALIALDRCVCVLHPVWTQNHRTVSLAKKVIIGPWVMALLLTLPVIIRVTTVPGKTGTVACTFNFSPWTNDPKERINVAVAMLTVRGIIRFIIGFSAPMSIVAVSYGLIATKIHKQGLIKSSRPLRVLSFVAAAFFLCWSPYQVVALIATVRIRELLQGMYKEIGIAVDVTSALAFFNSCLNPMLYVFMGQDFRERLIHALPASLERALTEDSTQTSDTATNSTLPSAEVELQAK
# FPR-like 2 (FPRL2) = target: T2, FPR-like 2 (FPRL2) (Homo sapiens, UniProt P25089); settings: FPRL2, low-affinity receptor
# T2 sequence (P25089 1-353): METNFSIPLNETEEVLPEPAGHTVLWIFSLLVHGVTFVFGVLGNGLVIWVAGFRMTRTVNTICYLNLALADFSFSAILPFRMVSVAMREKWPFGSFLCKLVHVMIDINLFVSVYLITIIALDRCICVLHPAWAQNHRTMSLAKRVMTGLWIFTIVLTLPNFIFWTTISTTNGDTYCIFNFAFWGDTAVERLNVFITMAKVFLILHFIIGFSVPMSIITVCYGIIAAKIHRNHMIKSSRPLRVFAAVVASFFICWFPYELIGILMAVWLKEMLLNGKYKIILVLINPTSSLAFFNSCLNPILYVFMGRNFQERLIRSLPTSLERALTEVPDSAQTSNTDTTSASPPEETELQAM
substance,measurement,setting,value
"LVVYPWT [spinorphin, Leu-Val-Val-Tyr-Pro-Trp-Thr]",chemotaxis of neutrophils caused by the low mwt chemoattractant,neutrophils,inhibited
RKAMGGHWPFGWFLCKFl (FMLP receptor derived peptide) [synthetic 17-aa peptide],inhibition of ligand binding to the 68-kDa protein,[1],strongest inhibitor of ligand binding
formyl-Met-Leu-Phe [fMLP],concentration needed for receptor activation,FPR-like 2 (FPRL2),only activated by high (micromolar) concentrations
